# Test system: apyrase
# Experiment: Screen for apyrase inhibitors (Method 1, in vitro phosphate-release absorbance assay)
# Format: biochemical
# Conditions: inhibitor conc at 1 mM stock, 1 hr room temperature, absorbance 630 nm; rounded average of two assay results
# Summary of the method: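 Phosphate-release colorimetric assay (Windsor method) in 60 mM Hepes, 3 mM MgCl2, 3 mM CaCl2, 3 mM ATP, pH 6.5, with compound or DMSO control added. Released phosphate developed with ammonium molybdate and ascorbic acid/TCA, then stopped with citrate/acetic acid.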
row,Structure (SMILES),% Inhibition of Apyrase
1,"Cc1ccc(NC(=O)c2sccc2C)c(S(=O)(=O)Nc2ccc(I)cc2)c1 [I-823, N-(2-(N-(4-iodophenyl)sulfamoyl)-4-methylphenyl)-3-methylthiophene-2-carboxamide]",53%
2,"CN(C1CCCCC1)S(=O)(=O)c1ccccc1NC(=O)c1c(F)cccc1F [I-824, N-(2-(N-cyclohexyl-N-methylsulfamoyl)phenyl)-2,6-difluorobenzamide]",52%
3,"CCOc1ccc(NS(=O)(=O)c2c(C)cccc2NC(=O)c2ccc(Oc3ccccc3)cc2)cc1 [I-825, N-(2-(N-(4-ethoxyphenyl)sulfamoyl)-3-methylphenyl)-4-phenoxybenzamide]",48%
4,"COc1ccc(NS(=O)(=O)c2cc(OC)ccc2NC(=O)c2c(OC)cccc2OC)cc1 [I-827, 2,6-dimethoxy-N-(4-methoxy-2-(N-(4-methoxyphenyl)sulfamoyl)phenyl)benzamide]",39%
5,"O=C(Nc1ccccc1NS(=O)(=O)c1cccs1)c1cccc(Cl)c1 [I-828, 3-chloro-N-(2-(thiophene-2-sulfonamido)phenyl)benzamide]",65%
6,"O=C1CN(S(=O)(=O)c2ccc(Cl)cc2)c2ccccc2N1 [I-829, 4-((4-chlorophenyl)sulfonyl)-3,4-dihydroquinoxalin-2(1H)-one]",63%
7,"O=C(Nc1ccccc1NS(=O)(=O)c1cccs1)c1ccc(Br)cc1 [I-830, 4-bromo-N-(2-(thiophene-2-sulfonamido)phenyl)benzamide]",60%
8,"COc1ccc([N+](=O)[O-])cc1S(=O)(=O)Nc1ccccc1NC(=O)c1ccc(C(C)(C)C)cc1 [I-831, 4-(tert-butyl)-N-(2-((2-methoxy-5-nitrophenyl)sulfonamido)phenyl)benzamide]",59%
9,"O=C(Nc1ccccc1NS(=O)(=O)c1cccs1)c1ccc(Cl)cc1 [I-832, 4-chloro-N-(2-(thiophene-2-sulfonamido)phenyl)benzamide]",58%
10,"O=C(Nc1ccccc1NS(=O)(=O)c1ccc(F)cc1)c1cccc(S(=O)(=O)C(F)(F)F)c1 [I-833, N-(2-((4-fluorophenyl)sulfonamido)phenyl)-3-((trifluoromethyl)sulfonyl)benzamide]",58%
11,"O=C(Nc1cc(Cl)ccc1NS(=O)(=O)c1ccccc1F)c1ccc(NC(=O)C2CC2)cc1 [I-834, N-(5-chloro-2-((2-fluorophenyl)sulfonamido)phenyl)-4-(cyclopropanecarboxamido)benzamide]",54%
12,"O=C(Nc1ccccc1NS(=O)(=O)c1cccs1)c1cc(Br)ccc1F [I-835, 5-bromo-2-fluoro-N-(2-(thiophene-2-sulfonamido)phenyl)benzamide]",52%
13,"O=C(Nc1ccccc1NS(=O)(=O)c1cccs1)c1ccc(C(F)(F)F)cc1 [I-836, N-(2-(thiophene-2-sulfonamido)phenyl)-4-(trifluoromethyl)benzamide]",49%
14,"O=C(Nc1ccccc1NS(=O)(=O)c1cccs1)c1ccc(Cl)cc1F [I-837, 4-chloro-2-fluoro-N-(2-(thiophene-2-sulfonamido)phenyl)benzamide]",35%
15,"CC(C)(C)c1ccc(C(=O)Nc2ccccc2NS(=O)(=O)c2cccc(S(N)(=O)=O)c2)cc1 [I-838, 4-(tert-butyl)-N-(2-((3-sulfamoylphenyl)sulfonamido)phenyl) benzamide]",29%
16,"O=C(Nc1ccccc1NS(=O)(=O)c1ccc(F)cc1)c1ccc(Cl)cc1 [I-839, 4-chloro-N-(2-((4-fluorophenyl)sulfonamido)phenyl)benzamide]",23%
17,"O=C(Nc1ccccc1NS(=O)(=O)c1cccs1)c1cc(Cl)ccc1F [I-840, 5-chloro-2-fluoro-N-(2-(thiophene-2-sulfonamido)phenyl)benzamide]",18%
18,"O=C(Nc1ccccc1NS(=O)(=O)c1ccc2oc(=O)ccc2c1)c1ccc(Cl)cc1 [I-841, 4-chloro-N-(2-((2-oxo-2H-chromene)-6-sulfonamido)phenyl)benzamide]",8%
19,"O=C1CCCN1c1ccccc1NS(=O)(=O)c1ccc(Br)cc1 [I-842, 4-bromo-N-(2-(2-oxopyrrolidin-1-yl)phenyl)benzenesulfonamide]",5%
20,"O=C1Cc2cc(S(=O)(=O)Nc3ccccc3NC(=O)c3ccc(Cl)cc3)ccc2N1 [I-843, 4-chloro-N-(2-((2-oxoindoline)-5-sulfonamido)phenyl)benzamide]",5%
21,"O=C1Cc2cccc(NS(=O)(=O)c3ccc(Cl)cc3)c2N1 [I-844, 4-chloro-N-(2-oxoindolin-7-yl)benzenesulfonamide]",5%
22,"O=C(Nc1cc(Cl)ccc1NS(=O)(=O)c1ccccc1F)c1ccccc1 [I-845, N-(5-chloro-2-((2-fluorophenyl)sulfonamido)phenyl)benzamide]",1%

row,Structure (SMILES),% Inhibition of Apyrase
1,"Cc1cccc(NS(=O)(=O)c2ccc(C(=O)Nc3cccc(C#N)c3)cc2)c1C [I-855, N-(3-cyanophenyl)-4-(N-(2,3-dimethylphenyl)sulfamoyl)benzamide]",82%
2,"CC1Cc2ccccc2N1C(=O)c1ccc(S(=O)(=O)Nc2ccccc2)cc1 (centres unmarked) [I-857, 4-(2-methylindoline-1-carbonyl)-N-phenylbenzenesulfonamide]",76%
3,"COc1ccc2c(c1)CCCN2C(=O)c1ccc(S(=O)(=O)Nc2ccc(F)cc2)cc1 [I-858, N-(4-fluorophenyl)-4-(6-methoxy-1,2,3,4-tetrahydroquinoline-1-carbonyl)benzenesulfonamide]",76%
4,"Cc1ccc(NC(=O)c2ccc(C(=O)Nc3ccc(C)cc3)cc2)cc1 [I-859, N1,N4-di-p-tolylterephthalamide]",72%
5,"O=C(c1ccc(S(=O)(=O)Nc2ccccc2)cc1)N1CCc2ccccc21 [I-860, 4-(indoline-1-carbonyl)-N-phenylbenzenesulfonamide]",71%
6,"CSc1cccc(NC(=O)c2ccc(C(=O)Nc3cccc(SC)c3)cc2)c1 [I-861, N1,N4-bis(3-(methylthio)phenyl)terephthalamide]",68%
7,"Cc1ccc(NS(=O)(=O)c2ccc(C(=O)Nc3ccc(C)cc3Br)cc2)cc1 [I-862, N-(2-bromo-4-methylphenyl)-4-(N-(p-tolyl)sulfamoyl)benzamide]",61%
8,"Cc1ccc(Cl)cc1NC(=O)c1ccc(S(=O)(=O)N2CCCc3ccccc32)cc1 [I-863, N-(5-chloro-2-methylphenyl)-4-((3,4-dihydroquinolin-1(2H)-yl)sulfonyl)benzamide]",59%
9,"CC(C)c1ccc(NC(=O)c2ccc(S(=O)(=O)N3CCCc4ccccc43)cc2)cc1 [I-864, 4-((3,4-dihydroquinolin-1(2H)-yl)sulfonyl)-N-(4-isopropylphenyl)benzamide]",59%
10,"CN(c1ccccc1)S(=O)(=O)c1ccc(C(=O)N2CCc3ccccc32)cc1 [I-865, 4-(indoline-1-carbonyl)-N-methyl-N-phenylbenzenesulfonamide]",59%
11,"COc1ccc2c(c1)CCCN2C(=O)c1ccc(S(=O)(=O)N2CCCc3ccccc32)cc1 [I-866, (4-((3,4-dihydroquinolin-1(2H)-yl)sulfonyl)phenyl)(6-methoxy-3,4-dihydroquinolin-1(2H)-yl)methanone]",58%
12,"COc1ccccc1N(C)S(=O)(=O)c1ccc(C(=O)N2CCSc3ccccc32)cc1 [I-867, 4-(3,4-dihydro-2H-benzo[b][1,4]thiazine-4-carbonyl)-N-(2-methoxyphenyl)-N-methylbenzenesulfonamide]",58%
13,"CCN(CC)S(=O)(=O)c1cccc(NC(=O)c2ccc(S(=O)(=O)N3CCCc4ccccc43)cc2)c1 [I-868, N-(3-(N,N-diethylsulfamoyl)phenyl)-4-((3,4-dihydroquinolin-1(2H)-yl)sulfonyl)benzamide]",58%
14,"COc1ccccc1N(C)S(=O)(=O)c1ccc(C(=O)N2CCc3ccc([N+](=O)[O-])cc32)cc1 [I-869, N-(2-methoxyphenyl)-N-methyl-4-(6-nitroindoline-1-carbonyl)benzenesulfonamide]",57%
15,"COc1ccccc1N(C)S(=O)(=O)c1ccc(C(=O)N2CCc3ccccc32)cc1 [I-870, 4-(indoline-1-carbonyl)-N-(2-methoxyphenyl)-N-methylbenzenesulfonamide]",57%
16,"COc1ccc2c(c1)CCCN2C(=O)c1ccc(S(=O)(=O)Nc2ccccc2)cc1 [I-871, 4-(6-methoxy-1,2,3,4-tetrahydroquinoline-1-carbonyl)-N-phenylbenzenesulfonamide]",56%
17,"COc1ccc2c(c1)CCCN2C(=O)c1ccc(S(=O)(=O)Nc2ccccc2C)cc1 [I-872, 4-(6-methoxy-1,2,3,4-tetrahydroquinoline-1-carbonyl)-N-(o-tolyl)benzenesulfonamide]",56%
18,"COc1ccc(C(C)(C)C)cc1NC(=O)c1ccc(S(=O)(=O)N(C)c2ccccc2OC)cc1 [I-873, N-(5-(tert-butyl)-2-methoxyphenyl)-4-(N-(2-methoxyphenyl)-N-methylsulfamoyl)benzamide]",56%
19,"CNC(=O)c1ccc(NC(=O)c2ccc(S(=O)(=O)Nc3ccc(C)cc3)cc2)cc1 [I-874, N-methyl-4-(4-(N-(p-tolyl)sulfamoyl)benzamido)benzamide]",56%
20,"O=C(Nc1ccc2c(c1)OCCO2)c1ccc(C(=O)Nc2ccc3c(c2)OCCO3)cc1 [I-875, N1,N4-bis(2,3-dihydrobenzo[b][1,4]dioxin-6-yl)terephthalamide]",55%
21,"O=C(Nc1ccc2c(c1)OCO2)c1ccc(C(=O)Nc2ccc3c(c2)OCO3)cc1 [I-876, N1,N4-bis(benzo[d][1,3]dioxol-5-yl)terephthalamide]",54%
22,"COc1ccccc1N(C)S(=O)(=O)c1ccc(C(=O)N2CCCc3ccccc32)cc1 [I-877, N-(2-methoxyphenyl)-N-methyl-4-(1,2,3,4-tetrahydroquinoline-1-carbonyl)benzenesulfonamide]",54%
